Here are results for seven compounds from patent US11912789B2, “Peptide activating agent” (Interk Peptide Therapeutics Limited, priority 2018, dated 2024).

In the experiment the target is T1, Lck (Homo sapiens, UniProt P06239).
T1 construct: purchased Eurofins Pharma Discovery Services UK Limited
The experiment is described as follows: In vitro Lck activation kinase study (Eurofins). It counts as biochemical. The procedure: The ability of polypeptides of the present invention to activate Lck was examined in vitro. Lck is member of the Src family of tyrosine kinases. In vitro Lck activation kinase studies were conducted by Eurofins Pharma Discovery Services UK Limited (Dundee Technology Park, Dundee, United Kingdom) using ATP concentrations within 15 μM of the apparent Km in the presence of peptide substrate (KVEKIGEGTYGVVYK; (SEQ ID NO: 63)) and test polypeptide in semi-log dose ranges. All results in Examples X percentage Lck activity relative to control (100%).
The ability of polypeptides of the present invention to activate Src family kinases was examined in vitro. Lck activation studies were carried out as described above and all Lck activity values are shown as percentage relative to control. In brief, Table 4 and Table 5 illustrate the selective activation of Lck kinase amongst the Src family kinases in the presence of the peptide RSKAKNPLY at 10 μM concentration.
The effect of modification of cationic amino acid positions and substitutions of the peptide RSKAKNPLY was examined. In brief, peptides with amino acid sequence changes compared to the peptide Pep9 (RSKAKNPLY) were assessed for the ability to stimulate Lck activity. All results are shown as percentage relative to control (100%).
Lck activity was evaluated as described in Example 1 and all Lck activity values are shown as percentage relative to control (100%). For ease of description, the polyamide moiety is referred to by “nCy” wherein n is the number of repeating units of the polyamide moiety, Cy is the number of carbon atoms of the R group in each repeating unit, and each R group is a saturated, linear carbon chain. Thus, in the present example, “4C10” is to be taken to refer to a polyamide moiety as shown in Scheme 1 above which has 4 repeating units (n=4) in which the R group of each repeating unit is a saturated, carbon side chain that is 10 carbon atoms in length (e.g. four 2-amino dodecanoic acids).

Non-standard residues stand in square brackets, D forms with d. Residues, ends and D or L forms follow the SMILES beside them. No end group written: not given here. ξ: configuration not given here. ξGly(decyl) = CCCCCCCCCCC(N)C(=O)O; 2Adod = 2-amino-dodecanoic acid

T1 sequence (P06239 whole entry): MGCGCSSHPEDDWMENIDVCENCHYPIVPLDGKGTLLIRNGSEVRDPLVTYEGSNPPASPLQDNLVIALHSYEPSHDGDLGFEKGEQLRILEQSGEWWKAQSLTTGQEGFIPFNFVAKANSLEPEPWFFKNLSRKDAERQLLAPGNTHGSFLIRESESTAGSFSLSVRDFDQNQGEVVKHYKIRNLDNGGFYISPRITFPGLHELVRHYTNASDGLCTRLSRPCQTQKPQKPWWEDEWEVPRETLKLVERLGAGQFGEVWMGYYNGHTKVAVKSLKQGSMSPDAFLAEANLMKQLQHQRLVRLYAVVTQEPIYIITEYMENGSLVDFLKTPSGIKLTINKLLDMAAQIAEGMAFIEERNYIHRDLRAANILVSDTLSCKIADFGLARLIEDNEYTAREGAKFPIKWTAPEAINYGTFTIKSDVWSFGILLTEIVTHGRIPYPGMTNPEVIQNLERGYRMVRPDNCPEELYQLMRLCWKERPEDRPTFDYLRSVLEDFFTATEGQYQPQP

Regarding “RSKAKNPLYR-(2Adod)4-OH (RSKAKNPLYR-{2Adod-2Adod-2Adod-2Adod-OH}) [… coupled to four 2-amino dodecanoic acid residues, non-amidated]”, for the setting “Table 9”, the “Lck activation above control (1 μM)” value is 252%. Moreover, the “Lck activation above control (10 μM)” value (10 μM, Table 9) is given as 395%.
Regarding `CCCCCCCCCCC(N)C(=O)O` (stereo not shown) [H-(2Adod)1-OH], under “Table 7”, the “Lck activation above control (1 μM)” value is 0%. Further, the “Lck activation above control (10 μM)” value (10 μM, Table 7) was determined as 0%.
Consider `CCCCCCCCCCC(N)C(=O)NC(CCCCCCCCCC)C(=O)NC(CCCCCCCCCC)C(=O)NC(CCCCCCCCCC)C(=O)O` (stereo not shown) [H-(2Adod)4-OH] (H-[ξGly(decyl)][ξGly(decyl)][ξGly(decyl)][ξGly(decyl)]-OH), for which the “Lck activation above control (1 μM)” value (Table 7) is listed as 0%. The “Lck activation above control (10 μM)” value (10 μM, Table 7) was found to be 0%.
For the compound `CCCCCCCCCCC(N)C(=O)NC(CCCCCCCCCC)C(=O)NC(CCCCCCCCCC)C(=O)O` (stereo not shown) [H-(2Adod)3-OH], the “Lck activation above control (1 μM)” value (Table 7) worked out at 0%. The “Lck activation above control (10 μM)” value (10 μM, Table 7) stood at 0%.
With “RSKAKNPLYR-1C10-OH (RSKAKNPLYR-{2Adod-OH}) [… coupled at the C-terminal end toone 2-amino dodecanoic acid residue]”, where the note is “10 μM, Table 8”, the “Lck Activity 10 μM” value was determined as 221%. The “Lck Activity 30 μM” value (30 μM, Table 8) turned out to be 277%.
In the case of “DSEAENPLYD-(2Adod)4-NH2 (DSEAENPLYD-{2Adod-2Adod-2Adod-2Adod-NH2}) [DSEAENPLYD-(2-Adod)4-NH2, anionic residues at 1, 3, 5, 10 in place of Arg and Lys]”, where the note is “cationic versus anionic residues”, the “Lck activation (FIG. 30)” value is reported as “does not increase the activity of Lck”.
As to `CCCCCCCCCCC(N)C(=O)NC(CCCCCCCCCC)C(=O)O` (stereo not shown) [H-(2Adod)2-OH], the “Lck activation above control (1 μM)” value (Table 7) is listed as 0%. For the same compound, the “Lck activation above control (10 μM)” value (10 μM, Table 7) is on record as 18%.
